The source of these data is patent publication US20090053807A1 (Novo Nordisk A/S, priority 1998, published 2009).

Read-outs that look alike come from different tables or passages of the source. Residues, ends and D or L forms follow the SMILES beside them. No end group written: not given here.

Assay [1] concerns the target T1, human insulin receptor (HIR) (Homo sapiens, UniProt P06213).
T1 construct: made in house
The experiment in a line: Insulin receptor binding, competition with 125I-labeled insulin (radio-receptor assay). As to conditions: for Kd: HIR binding affinity of synthetic peptides; for HIR binding affinity: comparison with monomers / homodimers.

Assay [2] has as its target soluble human insulin mini-receptor (mIR) (Homo sapiens, UniProt P06213, DEL496-730). The experiment in a line: Fluorescence polarization competition with FITC-RP9, mIR. The assay is classed as binding. As to conditions: target mIR, label FITC-RP9, FP. A general note: Fluorescence polarisation rises when a labelled molecule tumbles more slowly, as on binding a larger partner.

A further assay has as its system free fat cells. The assay is described as follows: Adipocyte / free fat cell (FFC) assay, 3H glucose incorporation into lipid. The note with it: for FFC Pot.: agonist or antagonist / FFC Pot.: Table 8; for FFC Pot.: potency.
The subject of assay [3] is MCF-7 cells. The experiment in a line: MCF-7 cell proliferation assay, antagonist format (50 nM IGF-1). The note with it: proliferation assays in the presence of IGF-1 using MCF-7 and MiaPaCa cells; Table 23.
In assay [4] the target is T2, soluble human insulin receptor-immunoglobulin heavy chain chimera (sIR-Fc) (Homo sapiens, UniProt P06213).
T2 construct: replacing the transmembrane domain and the intracellular domain of IR with constant domains from immunoglobulin Fc or λ subunits; made in house; host or cells: human embryonic kidney 293 cells (as described for the Bass construct)
The assay is described as follows: Fluorescence polarization competition with FITC-RP9, sIR-Fc. The assay is classed as binding. As to conditions: for Bndg Ratio IGF-1R/1R: higher values indicated higher affinity for IR than IGF-1R; for affinity / potency at IR: FP, FITC-RP9, summary of Table 22.

For assay [5], the target named is T3, IGF-1R (Homo sapiens, UniProt P08069). As to conditions: for binding ratio for IGF-1R over IR: TR-FRET at rhIGF-1R versus FP at sIR-Fc, summary of Table 22.
Assay [6] addresses insulin receptor construct transfected into 32D cells (Homo sapiens, UniProt P06213). The experiment in a line: IR autophosphorylation assay in IR transfected 32D cells (ELISA). As to conditions: MBP fusion peptides, FIG. 30. A general note: An ELISA detects its analyte on a solid surface through an enzyme-linked reagent.
Assay [7] has as its target T3, IGF-1R. The assay is described as follows: TR-FRET, dissociation of biotinylated-20E2 from IGF-1R. The assay is classed as binding. The note with it: peptides 100 μM, IGF-1 30 μM. On the procedure: Best fit non-linear regression analysis of the data, was used to determine dissociation rate constants. Each data point represents a single observation.
Reactions were allowed to reach equilibrium for 6 h at RT.
On the technique in general: In TR-FRET formats the signal depends on donor and acceptor labels being close together.

The target of assay [8] is T3, IGF-1R. The assay is described as follows: Phage ELISA, binding of phage clones to IGF-1R (ratio over background). Details: included the heterotetrameric (alpha 2-beta 2) extracellular domain of IGF-1R isolated from a mouse myeloma cell line; purchased R&D Systems 391-GR/CF; host or cells: mouse myeloma cell line. As to conditions: ratio of IGF-1R divided by ratio of IR.

In a further assay the target is T4, IR (Homo sapiens, UniProt P06213).
T4 construct: replacing the transmembrane domain and the intracellular domain of IR with constant domains from immunoglobulin Fc or λ subunits; made in house; host or cells: human embryonic kidney 293 cells (as described for the Bass construct)
The assay is described as follows: Phage ELISA, binding of phage clones to IR (ratio over background). As to conditions: ratio of IR divided by ratio of IGF-1R.

The test system of assay [9] is MCF-7 cells. The assay is described as follows: MCF-7 cell proliferation assay, agonist format. The assay is classed as cell-based, human.
The target in assay [10] is His-tagged soluble recombinant human IGF-1R (srhIGF-1R-his) (Homo sapiens, UniProt P08069). The assay is described as follows: ALPHAScreen binding assay, competition with b-hIGF-1. The note with it: Table 29.
Assay [11] has as its system FDC-P2 cells expressing the IL-3 and human IGF-1R receptors.
Assay [12] shares this test system. The experiment in a line: IGF-1 proliferation assay in FDC-P2 cells, antagonist format.
The test system of another assay is MiaPaCa cells. The experiment in a line: MiaPaCa cell proliferation assay, agonist format. The assay is classed as cell-based, human. The note with it: serum-free conditions.
Assay [13] has as its target recombinant human insulin receptor (Homo sapiens, UniProt P06213). The assay is described as follows: Substrate phosphorylation assay (HIR kinase). The assay is classed as biochemical. The note with it: for Kinase Pot. (nM): potency, Table 8. As for the experimental part: Subsequently, a 2000-fold dilution of horseradish peroxidase (HRPO) conjugated phosphotyrosine antibody (Transduction Laboratories, Cat. No. E120H) in TBS was added. The plates were incubated for 30 min and washed 3 times with TBS. TMB (3,3′,5,5′-tetramethylbenzidine; Kem-En-Tec, Copenhagen, Denmark) was added. One substrate from Kem-En-Tec was added. After 10^−15 min, the reaction was stopped by the addition of 1% acetic acid. The absorbance, representing the extent of substrate phosphorylation, was measured in a spectrophotometer at a wavelength of 450 nm.

[14] abbreviates: in the presence of a stimulating concentration of insulin.
The mark [15] stands for this setting: standard concentration of insulin.

By Kd is commonly meant a measure of binding affinity in units of concentration. As for `CC[C@@H](C)[C@@H](NC(=O)[C@H](CCC(=O)O)NC(=O)[C@H](CC(=O)O)NC(=O)[C@H](Cc1ccccc1)NC(=O)[C@H](Cc1c[nH]c2ccccc12)NC(=O)[C@H](CCC(=O)O)NC(=O)[C@H](Cc1ccc(O)cc1)NC(=O)[C@H](Cc1ccccc1)NC(=O)[C@H](CCC(=O)O)NC(=O)[C@H](CCCCN)NC(=O)[C@H](CC(N)=O)NC(=O)[C@H](CC(N)=O)NC(=O)[C@@H](N)CCCCN)C(=O)NCC(=O)N[C@H](CCC(N)=O)C(=O)O` [Peptide S320] (HELM PEPTIDE1{K.N.N.K.E.F.Y.E.W.F.D.E.[dI].G.[dQ]}$$$$V2.0; N-terminus and C-terminus assumed), the Kd in [1] stood at 2.8 µM.
On to `CC(C)C[C@H](NC(=O)[C@H](CCC(N)=O)NC(=O)[C@H](CCCNC(=N)N)NC(=O)[C@H](CCC(=O)O)NC(=O)[C@H](Cc1ccccc1)NC(=O)[C@H](Cc1c[nH]c2ccccc12)NC(=O)[C@H](CC(=O)O)NC(=O)[C@H](Cc1ccc(O)cc1)NC(=O)[C@H](Cc1ccccc1)NC(=O)[C@H](CO)NC(=O)[C@@H](N)CCC(=O)O)C(=O)NCC(=O)O` [Peptide S390], for which, in assay [2], the Hill is given as −0.94. For the same compound, the “activity in the FFC assay / at IR” value in the assay with free fat cells is “potency similar to full-length RP9 monomer peptides”.
Consider `CC(C)C[C@@H]1NC(=O)[C@@H](NC(=O)[C@H](CO)NC(=O)[C@H](Cc2ccc(O)cc2)NC(=O)[C@H](Cc2ccccc2)NC(=O)[C@@H](N)CO)CSSC[C@@H](C(=O)N[C@@H](CCCNC(=N)N)C(=O)N[C@@H](CCCCN)C(=O)N[C@@H](CCCCN)C(=O)O)NC(=O)CNC(=O)[C@H](CC(=O)O)NC(=O)[C@H](Cc2c[nH]c3ccccc23)NC(=O)[C@H](CCC(N)=O)NC(=O)CNC(=O)[C@H](CCCNC(=N)N)NC(=O)[C@H](CO)NC(=O)[C@H](CCCCN)NC(=O)[C@H](CCC(=O)O)NC(=O)[C@H](C)NC(=O)[C@@H]2CCCN2C(=O)CNC(=O)[C@H](CC(N)=O)NC(=O)[C@H](C(C)C)NC(=O)[C@H](CC(C)C)NC(=O)[C@H](CO)NC(=O)[C@H](CCC(=O)O)NC1=O` [RP33-IGF with KK], for which the Activ. result in the assay on MCF-7 cells [3] is recorded as “Antag”.
As a reminder, the IC50 is the concentration that gives 50% inhibition. DYKDFYDAIDQLVRGSARAGGTRD [20E2(D118)]: in assay [4], the “Bndg Ratio IGF-1R/1R” value is reported as 1.9. Also, the IC50 on IGF-1R [5] (read-out: TR-FRET rhIGF-1R IC50, vs. b-20E2, Table 22) came out at 0.1 µM.
Turning to FHENFYDWFVQRVSKK [Peptide H2C], the Hill in assay [2] is −0.89. Besides, the “affinity / potency at IR” value in assay [4] is listed as “slightly less potent”. Besides, the “stimulation of autophosphorylation of IR” value in assay [6] is reported as “stimulate autophosphorylation of IR”. Moreover, on IGF-1R [7], the “rate of dissociation of b-20E2” value was “similar”. For the same compound, the “binding ratio for IGF-1R over IR” value at IGF-1R [5] is recorded as “lower binding ratios for IGF-1R over IR”.
As to “FYVQQYWGHENFYDWFDRQVSQSGGAG [H2CA-4-P1-IGFR]”, the “Comparisons IGF-1R/IR” value with IGF-1R [8] is reported as 3.8. In addition, the “Comparisons IR/IGF-1R” value with IR worked out at 0.3.
For “GIISQSCPESFYDWFAGQVSDPWWCW [Peptide G33]”, the “IGF-1R agonist activity” value in the assay on MCF-7 cells [9] (MCF-7 and MiaPaCa cell proliferation (Tables 27-28)) is listed as “IGF-1R agonist activity”. Also, the “affinity / potency at IR” value in assay [4] was “less potent”. Moreover, in [10], the half-inhibitory concentration (IC50) came out at 0.6 µM. Moreover, in assay [11] (FDC-P2 cells), the “ED50, agonist activity at IGF-1R” value was about 10 µM and the “agonist activity at IGF-1R” value is “IGF-1R agonist activity”. Also, the “ED50 Growth” value in assay [11] (FDC-P2 cells, agonist format, Table 15) was 0.5 µM. The “Max Action” value in [11] (FDC-P2 cells, Table 15) is listed as over 50%. The “FDC-P2 Agonist” value in assay [11] (Table 30) was “+”. In assay [12], the “antagonist activity at IGF-1R” value is “no antagonist activity”.
In general, EC50 refers to the concentration that produces a half-maximal response. Higher therefore signals a need for much substance. GRVDWLQRNANFYDWFVAELG [Peptide S175] gave a Hill in assay [2] of −1.72. In assay [11], this compound yielded a 50% effective concentration (EC50) of 10 µM. Moreover, in assay [11] (FDC-P2 cells), the “ED50, agonist activity at IGF-1R” value is over 10 µM and the “agonist activity at IGF-1R” value is given as “IGF-1R agonist activity”.
GSLDESFYDWFERQL [Peptide S395]: in assay [1], the affinity, expressed as Kd, was 0.081 µM.
On the same count and under the same terms, as for HDPFYSMMKSLLK [Peptide S120], the figure is 2 µM.
In the case of “IGF-1: Insulin-like growth factor 1, from PeproTech; control”, the “ED50, proliferation” value with MCF-7 cells [9] (MCF-7, serum-free conditions) stood at 0.005 µM; in the assay on MiaPaCa cells it was 0.005 µM.
In the case of “MADYKDDDDKGSLDESFYDWFERQLGKKGGSGGSGGSGGSWLDQEWAWVQCEVYGRGCPSAAA(ETAG)PG [Peptide 538]”, in the assay on free fat cells, the “activity in the FFC assay / at IR” value is on record as “specific insulin receptor antagonists”, the “FFC Pot.: agonist or antagonist” value is listed as “N” and the “FFC Pot.” value came to 10 nM. For the same compound, the “activity in the FFC assay” value with free fat cells (setting [14]) was “antagonists”. In the assay on free fat cells (setting [15]), the “activity in the FFC assay” value is “inactive”. Moreover, in assay [1], the “HIR binding affinity” value is listed as “substantially higher (several orders of magnitude) affinity”. Further, the “Kinase Pot. (nM)” value in assay [13] is “Inactive”.
In the case of “MADYKDDDDKGSLDESFYDWFERQLGKKGGSGGSWLDQEWAWVQCEVYGRGCPSAAA(ETAG)PG [Peptide 537]”, in the assay with free fat cells, the “activity in the FFC assay / at IR” value was “specific insulin receptor antagonists”, the “FFC Pot.: agonist or antagonist” value is reported as “N” and the “FFC Pot.” value is given as 10 nM. In the assay on free fat cells (setting [14]), the “activity in the FFC assay” value is reported as “antagonists”. In addition, the “activity in the FFC assay” value in the assay with free fat cells (setting [15]) was “inactive”. Besides, the “HIR binding affinity” value in assay [1] was “substantially higher (several orders of magnitude) affinity”. In [13], the “Kinase Pot. (nM)” value is “Inactive”.
Turning to “MADYKDDDDKWLDQEWAWVQCEWGRGCPSGGSGGSGSLDESFYDWFERQLGKKAAA(ETAG)PG [Peptide 539]”, in the assay with free fat cells, the “activity in the FFC assay / at IR” value was “full agonist” and the “FFC Pot.” value came out at 10 nM. Also, the “HIR binding affinity” value in assay [1] is reported as “substantially higher (several orders of magnitude) affinity”. Further, the “activity in the HIR kinase assay” value in [13] is on record as “more active”.
Consider PPWGARFYDAIEQLVFDNL [RP4], for which, in assay [4], the “affinity / potency at IR” value is on record as “high affinities for IR” and the “Bndg Ratio IGF-1R/1R” value is 476. Moreover, in assay [4] (vs. FITC-RP9, Table 22, read-out: FP sIR-Fc IC50), the half-inhibitory concentration (IC50) amounted to 0.017 µM. In addition, at IGF-1R [5], the midpoint of inhibition, the IC50, lay at 8.1 µM and the “binding ratio for IGF-1R over IR” value is “high binding ratios for IGF-1R over IR”.
For SLNFYDALQLLAKK [Peptide S119], the equilibrium dissociation constant (Kd) in assay [1] was determined as 1.8 µM.
On to “WFGYAWLS-NH2 (C-terminus assumed) [Peptide S317]”, for which, in the assay on free fat cells, the “activity in the FFC assay / at IR” value is listed as “increased potency in FFC assays”. Moreover, in the assay on free fat cells (FFC assay potency, number of + grades agonist potency), the FEC is reported as 0. Also, in assay [1], the “HIR binding affinity” value was “increased HIR binding affinity”.
